# Measured values taken from patent US20220096449A1, “METHOD OF TREATMENT WITH TRADIPITANT” (Vanda Pharmaceuticals Inc., priority 2018, published 2022).
# Values joined by “and” are separate entries in the source; they are usually repeats but may differ in a detail not shown here. Identical values can stand only once. Marks after values point to notes of the source that are not given here.
# Assays:
# NK-2 receptor = biological target: T1, NK-2 receptor (Homo sapiens, UniProt P21452); assay: NK-2 receptor inhibition; type: binding
# T1 sequence (P21452 1-398): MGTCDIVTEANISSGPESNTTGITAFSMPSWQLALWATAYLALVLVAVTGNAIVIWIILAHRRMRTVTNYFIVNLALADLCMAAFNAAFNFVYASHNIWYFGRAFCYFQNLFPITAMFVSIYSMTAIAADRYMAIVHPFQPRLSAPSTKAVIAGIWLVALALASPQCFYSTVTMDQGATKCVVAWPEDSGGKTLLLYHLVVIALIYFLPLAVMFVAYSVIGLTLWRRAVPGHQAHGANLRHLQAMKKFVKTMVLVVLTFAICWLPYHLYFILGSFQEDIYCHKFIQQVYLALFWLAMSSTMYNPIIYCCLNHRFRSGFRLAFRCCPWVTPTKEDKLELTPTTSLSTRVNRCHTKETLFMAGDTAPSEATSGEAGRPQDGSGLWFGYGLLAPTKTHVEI
# [1] = system: apomorphine-induced emesis; assay: Apomorphine emetic challenge in beagle dogs; type: in vivo, beagle dog; settings: for Total No. Emetic Episodes: apomorphine 0.1 mg/kg iv 2 hours later, 5 dogs
# Experimental: Over the five (5) weeks of the study, each animal receives each of the treatments, but only one per week. The purpose of this study is to determine if tradipitant suppresses apomorphine-induced emesis.
# All animals are dosed over a period of five (5) weeks, with each dog receiving one of five different treatments on each day of dosing.
# All dogs are fasted overnight prior to each treatment day and then fed approximately one (1) hour after oral dosing (approximately one (1) hour prior to administration of apomorphine). Individual doses are adjusted weekly for changes in body weight.
# The dose regimen consists of a 5×5 Latin square design, in which each subject receives 1 dose or dose combination per week (6 day washout) as shown in Table 3 below.
# brain NK-1 receptors = assay: Brain NK-1 receptor occupancy with tracer GR205171; type: in vivo; settings: p.o., tracer GR205171 iv
# Experimental: A tracer NK-1 antagonist compound (GR205171) is used to evaluate the ability of other NK-1 antagonists to occupy the brain NK-1 receptors. In these studies, the test compounds are administered orally and the tracer compound is administered intravenously afterward. The occupancy of the NK-1 receptors is evaluated by quantitating the amount of the tracer compound bound to the brain NK-1 receptors after increasing doses of the test compounds.
# [2] = system: patients with idiopathic and diabetic gastroparesis; assay: Phase II study VLY-686-2301, double blind randomized portion (Example 5); type: in vivo, human; settings: for CGI-S, change from baseline / DD-% Nausea Free Days, change from baseline / DD-Nausea (Daily Diary Nausea Score, 0-5), change from baseline / GCSI, change from baseline / PAGI-SYM, change from baseline / PGI-C: 4 weeks; for Daily Diary Nausea Weekly Average, Effect size estimate: tradipitant treatment arm
# From the text: In a phase II study of tradipitant in patients with idiopathic and diabetic gastroparesis, participants enter a 4 week screening period prior to treatment with tradipitant, during which they answer a daily symptom questionnaire rating their nausea severity on a scale of 0 to 5, in which 0 represents no nausea, 1 represents very mild nausea, 2 represents mild nausea, 3 represents moderate nausea, 4 represents severe nausea, and 5 represents very severe nausea. After the 4 week screening period, 141 gastroparesis patients in an Intent to Treat (ITT) population enter the 4 week double blind randomized portion of the study, in which they receive either tradipitant 85 mg bid, or placebo. Several symptom severity scales are used to assess gastroparesis symptoms, including the […] (GCSI), Patients Assessment of Upper Gastrointestinal Disorders-Symptoms (PAGI-SYM), and Patient Global Impression of Change (PGI-C), as well as a Clinician Global Impression of Severity (CGI-S). After 4 weeks of blinded study drug treatment, patients have the opportunity to enter an additional 8 week open label extension, during which each subject receives tradipitant 85 mg bid.
# Abbreviations used in Table 6 include: Daily Diary Nausea Score, 0-5 (DD-Nausea); Daily Diary Nausea Free Days, percent 0-100 (DD-% Nausea Free Days); Intent to Treat (ITT); Gastroparesis Cardinal Symptom Index (GCSI); Patient Assessment of Gastrointestinal Disorders-Symptoms (PAGI-SYM); Clinician Global Impression of Severity (CGI-S); Patient Global Impression of Change (PGI-C). For DD-Nausea, DD-% Nausea Free Days, GCSI, PAGI-SYM and CGI-S, the values shown are changes from baseline.
# [3] = system: panel of 74 other receptors, enzymes, and ion channels; assay: Binding panel of 74 other receptors, enzymes and ion channels; settings: test concentration of 1 μM; any of 74 targets
# [4] = Plasma concentration of tradipitant 2 hours post-dose in dogs; type: in vivo, beagle dog; settings: individual dogs
# Experimental: All animals are dosed over a period of five (5) weeks, with each dog receiving one of five different treatments on each day of dosing. […] In cases where apomorphine is administered alone, without prior treatment with tradipitant or aprepitant, apomorphine is given at approximately the same time as when given in combination with tradipitant or aprepitant.
# [5] = ITT Population, 85 mg bid, n = 73
# [6] = Vomiting Population, 85 mg bid, n = 58
compound,measurement,setting,value
"O=C(c1ccccc1Cl)c1cccnc1-c1nnn(Cc2cc(C(F)(F)F)cc(C(F)(F)F)c2)c1-c1ccncc1 [Tradipitant, {2-[1-(3,5-bistrifluoromethylbenzyl)-5-pyridin-4-yl-1H-[1,2,3]triazol-4-yl]-pyridin-3-yl}-(2-chlorophenyl)-methanone]",inhibition at NK-2 receptor,NK-2 receptor,no significant inhibition
same,Total No. Emetic Episodes,[1]; 0.3 mg/kg oral,1**
same,Total No. Emetic Episodes,[1]; 1.0 mg/kg oral,1**
same,Total No. Emetic Episodes,[1]; 3.0 mg/kg oral,1**
same,effect against apomorphine-induced emesis,"[1]; each dose tested (0.3, 1.0, and 3.0 mg/kg)",effective
same,"ED50, occupancy of brain NK-1 receptors",brain NK-1 receptors,0.04 mg/kg
same,tolerability,"[2]; 85 mg bid, confirms prior studies' findings",well tolerated
same,"CGI-S, change from baseline",[2]; [5],−1.13
same,"DD-% Nausea Free Days, change from baseline",[2]; [5],28.8%
same,"DD-Nausea (Daily Diary Nausea Score, 0-5), change from baseline",[2]; [5],−1.25
same,"GCSI, change from baseline",[2]; [5],−0.93
same,"PAGI-SYM, change from baseline",[2]; [5],−0.93
same,PGI-C,[2]; [5],2.66
same,"DD-Nausea (Daily Diary Nausea Score, 0-5), change from baseline","[2]; ITT Population, 85 mg bid, n = 73, listed as tradipitant",−1.2
same,"CGI-S, change from baseline",[2]; [6],−1.24
same,"DD-% Nausea Free Days, change from baseline",[2]; [6],32.3%
same,"DD-Nausea (Daily Diary Nausea Score, 0-5), change from baseline",[2]; [6],−1.43
same,"GCSI, change from baseline",[2]; [6],−1.10
same,"PAGI-SYM, change from baseline",[2]; [6],−1.06
same,PGI-C,[2]; [6],2.52
same,"DD-Nausea (Daily Diary Nausea Score, 0-5), change from baseline","[2]; Vomiting Population, 85 mg bid, n = 58, listed as tradipitant",−1.4
same,"Daily Diary Nausea Weekly Average, Effect size estimate",[2]; Week 1 vs Week 2,0.314
same,"Daily Diary Nausea Weekly Average, Effect size estimate",[2]; Week 1 vs Week 3,0.5556
same,"Daily Diary Nausea Weekly Average, Effect size estimate",[2]; Week 1 vs Week 4,0.592
same,"Daily Diary Nausea Weekly Average, Effect size estimate",[2]; Week 2 vs Week 3,0.2416
same,"Daily Diary Nausea Weekly Average, Effect size estimate",[2]; Week 2 vs Week 4,0.278
same,"Daily Diary Nausea Weekly Average, Effect size estimate",[2]; Week 3 vs Week 4,0.03647
same,inhibition of binding,[3],≤ 50%
same,Concentration of tradipitant in plasma,[4]; 0.3 mg/kg oral,90.93 ng/mL and 83.38 ng/mL and 22.59 ng/mL and 51.20 ng/mL and 41.33 ng/mL
same,Concentration of tradipitant in plasma,[4]; 1.0 mg/kg oral,240.84 ng/mL and 100.97 ng/mL and 61.56 ng/mL and 175.58 ng/mL and 86.49 ng/mL
same,Concentration of tradipitant in plasma,[4]; 3.0 mg/kg oral,316.20 ng/mL and 682.91 ng/mL and 119.79 ng/mL and 122.73 ng/mL and 256.58 ng/mL
